From patent US20070049593A1 (priority 2004, published 2007)
Structures can show the parent of a compound that is named as a salt.

Target: T1, HCV polymerase (Hepatitis C virus genotype 1b, UniProt P26663)
T1 construct: a region encoding NS5B (J Virol 1991 March, 65(3), 1105-13, 544 amino acids after deletion of 47 amino acids on the C-terminal); 6xHis (C); made in house; host or cells: Escherichia coli
Assay: biochemical
Parameters: species or system HCV BK strain
Outline: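 Recombinant HCV BK-strain NS5B (C-terminal 47 aa deleted, His6-tagged, E. coli), 0.5 μg/ml, run with 5 μg/ml in vitro-transcribed RNA template (polyU/3′X), ATP/GTP/CTP 50 μM, UTP 2 μM plus [3H]UTP, pH 7.5, 25° C, 90 min. TCA-precipitated RNA counted by scintillation; IC50 from activity with vs without compound.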

T1 sequence (P26663 2420-2963): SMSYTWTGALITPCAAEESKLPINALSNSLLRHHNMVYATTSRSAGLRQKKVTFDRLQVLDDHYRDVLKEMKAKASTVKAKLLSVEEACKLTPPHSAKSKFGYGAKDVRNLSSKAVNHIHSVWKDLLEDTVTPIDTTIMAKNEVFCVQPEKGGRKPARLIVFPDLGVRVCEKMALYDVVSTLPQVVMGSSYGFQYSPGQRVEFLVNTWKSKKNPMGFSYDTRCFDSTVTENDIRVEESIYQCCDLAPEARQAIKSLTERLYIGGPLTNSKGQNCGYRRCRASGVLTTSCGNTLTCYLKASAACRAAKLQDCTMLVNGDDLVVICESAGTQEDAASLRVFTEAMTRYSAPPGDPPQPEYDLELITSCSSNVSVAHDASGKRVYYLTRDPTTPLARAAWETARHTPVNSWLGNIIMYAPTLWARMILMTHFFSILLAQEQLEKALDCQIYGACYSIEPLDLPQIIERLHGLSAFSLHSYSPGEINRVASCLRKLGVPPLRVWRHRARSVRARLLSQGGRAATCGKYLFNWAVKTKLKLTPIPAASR

| SMILES | IC50 |
| --- | --- |
| CCN1CCCC(CCN2CCn3c(c(C4CCCCC4)c4ccc(C(=O)O)cc43)-c3ccccc32)C1 (stereo not drawn) [Example 1-166, 13-cyclohexyl-5-[2-(1-ethylpiperidin-3-yl)ethyl]-6,7-dihydro-5H-benzo[5,6][1,4]diazepino[7,1-a]indole-10-carboxylic acid dihydrochloride] | < 0.1 µM |
| CC(C)(C)OC(=O)N1CCCC(CCN2CCn3c(c(C4CCCCC4)c4ccc(C(=O)O)cc43)-c3ccccc32)C1 (stereo not drawn) [Example 1-167, 5-[2-(1-tert-butoxycarbonylpiperidin-3-yl)ethyl]-13-cyclohexyl-6,7-dihydro-5H-benzo[5,6][1,4]diazepino[7,1-a]indole-10-carboxylic acid] | 0.1 to 1 µM |
| Cc1ccc2c(c1)N(CCN1CCCOCC1)CCn1c-2c(C2CCCCC2)c2ccc(C(=O)O)cc21 [Example 1-168, 13-cyclohexyl-3-methyl-5-[2-(1,4-oxazepan-4-yl)ethyl]-6,7-dihydro-5H-benzo[5,6][1,4]diazepino[7,1-a]indole-10-carboxylic acid] | < 0.1 µM |
| O=C(O)c1ccc2c(C3CCCCC3)c3n(c2c1)CCN(CCN1CCCOCC1)c1cc(Cl)ccc1-3 [Example 1-169, 3-chloro-13-cyclohexyl-5-[2-(1,4-oxazepan-4-yl)ethyl]-6,7-dihydro-5H-benzo[5,6][1,4]diazepino[7,1-a]indole-10-carboxylic acid monohydrochloride] | < 0.1 µM |
| O=C(O)c1ccc2c(C3CCCCC3)c3n(c2c1)CCN(CCN1CCCOCC1)c1cc(F)ccc1-3 [Example 1-170, 13-cyclohexyl-3-fluoro-5-[2-(1,4-oxazepan-4-yl)ethyl]-6,7-dihydro-5H-benzo[5,6][1,4]diazepino[7,1-a]indole-10-carboxylic acid dihydrochloride] | < 0.1 µM |
| O=C(O)c1ccc2c(C3CCCCC3)c3n(c2c1)CCN(CC(=O)N1CCC(F)(F)CC1)c1ccccc1-3 [Example 1-171, 13-cyclohexyl-5-[2-(4,4-difluoropiperidin-1-yl)-2-oxoethyl]-6,7-dihydro-5H-benzo[5,6][1,4]diazepino[7,1-a]indole-10-carboxylic acid monohydrochloride] | < 0.1 µM |
| O=C(O)c1ccc2c(C3CCCCC3)c3n(c2c1)CCN(CCN1CCC(C(F)(F)F)CC1)c1ccccc1-3 [Example 1-172, 13-cyclohexyl-5-[2-(4-trifluoromethylpiperidin-1-yl)ethyl]-6,7-dihydro-5H-benzo[5,6][1,4]diazepino[7,1-a]indole-10-carboxylic acid dihydrochloride] | < 0.1 µM |
| CCCN1CCC(CCN2CCn3c(c(C4CCCCC4)c4ccc(C(=O)O)cc43)-c3ccccc32)CC1 [Example 1-173, 13-cyclohexyl-5-[2-(1-propylpiperidin-4-yl)ethyl]-6,7-dihydro-5H-benzo[5,6][1,4]diazepino[7,1-a]indole-10-carboxylic acid dihydrochloride] | < 0.1 µM |
| O=C(O)c1ccc2c(C3CCCCC3)c3n(c2c1)CCN(CCN1CCC(F)(F)CC1)c1ccccc1-3 [Example 1-174, 13-cyclohexyl-5-[2-(4,4-difluoropiperidin-1-yl)ethyl]-6,7-dihydro-5H-benzo[5,6][1,4]diazepino[7,1-a]indole-10-carboxylic acid dihydrochloride] | < 0.1 µM |
| CCN1CCC(=C(F)CN2CCn3c(c(C4CCCCC4)c4ccc(C(=O)O)cc43)-c3ccccc32)CC1 [Example 1-175, 13-cyclohexyl-5-[2-(1-ethylpiperidin-4-ylidene)-2-fluoroethyl]-6,7-dihydro-5H-benzo[5,6][1,4]diazepino[7,1-a]indole-10-carboxylic acid dihydrochloride] | < 0.1 µM |
| O=C(O)c1ccc2c(C3CCCCC3)c3n(c2c1)CCN(CCN1CCCCC1)c1ccc(Cl)cc1-3 [Example 1-176, 2-chloro-13-cyclohexyl-5-[2-(piperidin-1-yl)ethyl]-6,7-dihydro-5H-benzo[5,6][1,4]diazepino[7,1-a]indole-10-carboxylic acid dihydrochloride] | < 0.1 µM |
| O=C(O)c1ccc2c(C3CCCCC3)c3n(c2c1)CCN(CCC1CCCCN1)c1ccccc1-3 (stereo not drawn) [Example 1-177, 13-cyclohexyl-5-[2-(piperidin-2-yl)ethyl]-6,7-dihydro-5H-benzo[5,6][1,4]diazepino[7,1-a]indole-10-carboxylic acid dihydrochloride] | < 0.1 µM |
| CCN1CCCCC1CCN1CCn2c(c(C3CCCCC3)c3ccc(C(=O)O)cc32)-c2ccccc21 (stereo not drawn) [Example 1-178, 13-cyclohexyl-5-[2-(1-ethylpiperidin-2-yl)ethyl]-6,7-dihydro-5H-benzo[5,6][1,4]diazepino[7,1-a]indole-10-carboxylic acid dihydrochloride] | < 0.1 µM |
| CSc1ccc2c(c1)N(CCN1CCCCC1)CCn1c-2c(C2CCCCC2)c2ccc(C(=O)O)cc21 [Example 1-179, 13-cyclohexyl-3-methylsulfanyl-5-[2-(piperidin-1-yl)ethyl]-6,7-dihydro-5H-benzo[5,6][1,4]diazepino[7,1-a]indole-10-carboxylic acid dihydrochloride] | < 0.1 µM |
| NC(=O)c1ccc2c(C3CCCCC3)c3n(c2c1)CCN(CCN1CCCCC1)c1cc(Cl)ccc1-3 [Example 1-180, 3-chloro-13-cyclohexyl-5-[2-(piperidin-1-yl)ethyl]-6,7-dihydro-5H-benzo[5,6][1,4]diazepino[7,1-a]indole-10-carboxamide dihydrochloride] | < 0.1 µM |
| O=C(O)c1ccc2c(C3CCCCC3)c3n(c2c1)CCN(CCc1cccnc1)c1ccccc1-3 [Example 1-181, 13-cyclohexyl-5-[2-(pyridin-3-yl)ethyl]-6,7-dihydro-5H-benzo[5,6][1,4]diazepino[7,1-a]indole-10-carboxylic acid dihydrochloride] | < 0.1 µM |
| O=C(O)c1ccc2c(C3CCCCC3)c3n(c2c1)CCN(CCc1ccncc1)c1ccccc1-3 [Example 1-182, 13-cyclohexyl-5-[2-(pyridin-4-yl)ethyl]-6,7-dihydro-5H-benzo[5,6][1,4]diazepino[7,1-a]indole-10-carboxylic acid dihydrochloride] | < 0.1 µM |
| O=C(O)c1ccc2c(C3CCCCC3)c3n(c2c1)CCN(CCN1C[C@H]2CCCC[C@H]2C1)c1ccccc1-3 [Example 1-183, 13-cyclohexyl-5-[(3aS,7aR)-2-(octahydroisoindol-2-yl)ethyl]-6,7-dihydro-5H-benzo[5,6][1,4]diazepino[7,1-a]indole-10-carboxylic acid dihydrochloride] | < 0.1 µM |
| O=C(O)c1ccc2c(C3CCCCC3)c3n(c2c1)CCN(CCN1CCC2(CCCC2)CC1)c1ccccc1-3 [Example 1-184, 5-[2-(8-azaspiro[4.5]decan-8-yl)ethyl]-13-cyclohexyl-6,7-dihydro-5H-benzo[5,6][1,4]diazepino[7,1-a]indole-10-carboxylic acid dihydrochloride] | < 0.1 µM |
| CCN(CC)CCN1CCn2c(c(C3CCCCC3)c3ccc(C(=O)O)cc32)-c2ccccc21 [Example 1-185, 13-cyclohexyl-5-(2-diethylaminoethyl)-6,7-dihydro-5H-benzo[5,6][1,4]diazepino[7,1-a]indole-10-carboxylic acid dihydrochloride] | < 0.1 µM |
| CC(C)N(CCN1CCn2c(c(C3CCCCC3)c3ccc(C(=O)O)cc32)-c2ccccc21)C(C)C [Example 1-186, 13-cyclohexyl-5-(2-diisopropylaminoethyl)-6,7-dihydro-5H-benzo[5,6][1,4]diazepino[7,1-a]indole-10-carboxylic acid dihydrochloride] | < 0.1 µM |
